# Measurements reported in US10786522B2, “Compositions that include anthocyanidins and methods of use” (Maqui NewLife S.A., priority 2009, dated 2020).
# Marks after values point to notes of the source that are not given here.
# How the values were obtained:
# [1] = tested on: Jurkat T cells; test: Calcium entry (SOCE) in Jurkat T cells after addition of CaCl2; type: cell-based
# Method: To measure calcium entry after 200 seconds, when the levels of calcium returned to the baseline, 0.9 mM of CaCl2 was added, and the fluxes of Ca^2+ were measured as ratio of excitation ratio at 340 and 380 nm, and emission at 509 nm in a spectrofluorimeter during 150 seconds.
# 4×10^6 FURA 2-AM-loaded Jurkat T cells were incubated in HBSS calcium free medium. The cells were incubated in 50 uM delphinidin or 50 uM delphinidin plus 10 μM BTP-2 and the fluxes of Ca^2+ were measured as ratio of excitation at 340 and 380 nm, and emission at 509 nm, at 37° C. in a spectrofluorimeter (LS55, PerkinElmer).
# [2] = tested on: Human T cells; test: IL-2 production in freshly isolated human T cells (ELISA); type: cell-based; conditions: for Average IL-2 production / Percentage compared to the control (IL-2): 48 hrs
# Method: (§1) The effect of delphinidin on IL-2 and INF-γ production was also assayed on freshly isolated human T cells. Human T cells were isolated from blood of healthy volunteers using Lymphoprep reagent. T cells (1×10^6) in RMPI medium were incubated for 48 hrs at 37° C., in 5% CO2 in the presence of a vehicle control solution; 50 μM delphinidin; 50 μM delphinidin+1 μM BTP-2; 50 μM delphinidin+5 μM BTP-2; 50 μM delphinidin+10 μM BTP-2; 1 μM BTP-2; 5 μM. BTP-2; or 10 μM BTP-2. Then the supernatants were collected and analyzed using commercial ELISA kit (Becton Dickinson, USA) to measure IL-2 and INF-γ production according to the supplier's directions.
# We evaluated the effect of a combination of delphinidin and andandrographolide on IL-2 production in both freshly harvested human T cells and the Jurkat cell line. Andrographolide was prepared according to the method described in Example 4. Human T cells were isolated from blood of healthy volunteers using Lymphoprep reagent. T cells (1×10^6) in RMPI medium were incubated for 48 hrs at 37° C., in 5% CO2 in the presence of a vehicle control solution; 5 nM andrographolide; 50 μM delphinidin; or 5 nM andrographolide plus 50 μM delphinidin. Then the supernatants were collected and analyzed using commercial ELISA kit (Becton Dickinson, USA) to measure IL-2 production according to the supplier's directions.
# [3] = tested on: Human T cells; test: INF-γ production in freshly isolated human T cells (ELISA); type: cell-based; conditions: for Average INF-γ production / Percentage vs. control (INF-γ): 48 hrs
# Method: as §1
# [4] = tested on: Sprague Dawley rats; test: Acute plantar inflammation model (carragenin) in rats; type: in vivo, rat; conditions: 1% carragenin, 6 hrs; anthocyanidins 35 mg/kg, diclofenac 2 mg/kg
# Method: We assayed the effect of anthocyanidins on inflammation in vivo in an acute plantar inflammation model. Inflammation was induced in Sprague Dawley rats (200 g) using 1% carragenin (Sigma-Aldrich). The animals were treated with 35 mg/kg of anthocyanidins rich in […] (prepared according to the method descirbed in Example 1) or with diclofenac (2 mg/kg). The diameter of the treated legs was measured with a digital caliper over 6 hrs.
# [5] = tested on: PPAR-γ; test: PPAR-γ-Luc reporter assay in HL-60 cells; type: cell-based, Human; conditions: control substances, 12 h, concentration not given
# Method: We examined the effect of delphindin-rich anthocyanidins on PPAR-γ activation. HL-60 cells in IMDM medium were transfected with the reporter vectors PPAR-γ-Luc (5 μg) (Panomics) and TK-RL (1 μg) (Promega) using Fugene 6 reagent (Roche), and cultured for 24 hr. Then, the cells were incubated for 12 h in 0.175, 1.75, or 17.5 μg/ml of delphindin-rich anthocyanidins, phorbol myristate acetate (PMA), 15-deoxi-d 12,14-prostaglandin J2 (PGj2), or tumor necrosis factor alpha (TNFα) as controls. Luciferase activity was measured using the Dual-Luciferase Reporter Assay kit (DLR) from Promega in a luminometer (Luminoskan).
# [6] = tested on: Jurkat T cells; test: Calcium release in Jurkat T cells in HBSS calcium free medium; type: cell-based
# Method: To measure calcium release, 4×10^6 FURA 2-AM-loaded Jurkat T cells were incubated in HBSS calcium free medium as decribed in Example 6. The cells were incubated in 50 uM delphinidin, or in 50 uM delphinidin and 10 μM N-[4-[3,5-bis(trifluoromethyl)-1H-pyrazol-1-yl]phenyl]-4-methyl-1,2,3-thiadiazole-5-carboxamide (BTP-2, a Store-Operated Calcium Entry (SOCE) inhibitor). The release of Ca^2+ was measured as ratio of excitation at 340 and 380 nm, and emission at 509 nm, for 200 seconds, at 37° C., in a spectrofluorimeter (LS55, PerkinElmer).
# 4×10^6 FURA 2-AM-loaded Jurkat T cells were incubated in HBSS calcium free medium. The cells were then incubated in 50 uM delphinidin and the fluxes of Ca^2+ were measured as ratio of excitation at 340 and 380 nm, and emission at 509 nm, at 37° C. in a spectrofluorimeter (LS55, PerkinElmer).
# 4×10^6 FURA 2-AM-loaded Jurkat T cells were incubated in HBSS calcium free medium. The cells were then treated with vehicle alone or 50 or 100 uM U73122 for 10 minutes prior to incubation in 50 uM delphinidin. Ca^2+ flux was measured as ratio of excitation at 340 and 380 nm, and emission at 509 nm, at 37° C. in a spectrofluorimeter (LS55, PerkinElmer).
# [7] = tested on: Jurkat T cells; test: IL-2 production in Jurkat T cells (ELISA); type: cell-based
# Method: (§2) 2×10^6 Jurkat T cells in RPMI medium were incubated for 48 hrs at 37° C., in 5% CO2 in the presence of vehicle control solution; or the T cell activator, phorbol 12-myristate 13-acetate/lonomycin (PMA/Io 2 ng/ml 1 uM); 50 μM of delphinidin; 50 μM delphinidin+PMA/Io; 50 μM cyanidin; or 50 μM cyaniding+PMA/Io. Then the supernatants were collected and IL-2 production was analyzed by ELISA using a commercial kit (Becton Dickinson, USA) according to the supplier's directions.
# Then the supernatants were collected and analyzed using commercial ELISA kit (Becton Dickinson, USA) to measure IL-2 production according to the supplier's directions.
# Jurkat T cells were incubated in either a vehicle control solution; 5 nM andrographolide; 50 μM delphinidin; or 5 nM andrographolide plus 50 μM delphinidin.
# [8] = tested on: Jurkat T cells; test: INF-γ production in Jurkat T cells (ELISA); type: cell-based; conditions: 48 hrs; for Average INF-γ production / Percentage vs. control (INF-γ): delphinidin 50 μM, cyanidin 50 μM, PMA/Io 2 ng/ml 1 uM
# Method: as §2, with “We also explored the effect of delphinidin and cyanidin on Interferon-gamma (INF-γ) production in Jurkat T cells. 2×10^6” for “2×10^6”, “CO2. The samples were incubated” for “CO2”, “13-acetate/Ionomycin” for “13-acetate/lonomycin”, “IFN-γ” for “IL-2”
# [9] = tested on: Jurkat T cells; test: Ca2+ fluxes in FURA 2-AM-loaded Jurkat T cells (spectrofluorimetry, medium with CaCl2); type: cell-based
# Method: We evaluated the effect of delphinidin on intracellular calcium release in Jurkat T cells. Extracts were prepared according to the method of Example 1. Jurkat T cells in Hanks' Balanced Salt Solution (HBSS) medium (Invitrogen) with 0.9 mM of CaCl2 were loaded with Fura-2-acetoxymethyl ester (2.5 uM FURA 2-AM) for 30 min at 37° C., washed and incubated in 10 μM, 50 μM, and 100 μM delphinidin. The fluxes of Ca^2+ were measured as ratio of excitation at 340 and 380 nm, and emission at 509 nm, for 300 seconds, at 37° C. in a spectrofluorimeter (LS55, PerkinElmer).
# [10] = tested on: Jurkat T cells; test: IL-2 production in Jurkat T cells (ELISA); type: cell-based; conditions: Table 9; 48 hrs; delphinidin 50 μM, CsA
# [11] = 1 μM BTP-2, alone or with 50 μM delphinidin
# [12] = 5 μM BTP-2, alone or with 50 μM delphinidin
# [13] = 10 μM BTP-2, alone or with 50 μM delphinidin
# [14] = Table 11, andrographolide 5 nM, delphinidin 50 μM
# [15] = Table 10, andrographolide 5 nM, delphinidin 50 μM
# [16] = andrographolide 5 nM, delphinidin 50 μM
# [17] = Table 5, 48 hrs, delphinidin 50 μM, cyanidin 50 μM, PMA/Io 2 ng/ml 1 uM
# [18] = calcium free medium, delphinidin 50 μM, BTP-2 10 μM
# [19] = 0.9 mM CaCl2 added after 200 seconds, delphinidin 50 μM, BTP-2 10 μM
compound,measurement,setting,value
"Cc1nnsc1C(=O)Nc1ccc(-n2nc(C(F)(F)F)cc2C(F)(F)F)cc1 [BTP-2, N-[4-[3,5-bis(trifluoromethyl)-1H-pyrazol-1-yl]phenyl]-4-methyl-1,2,3-thiadiazole-5-carboxamide]","delphinidin-induced calcium influx in the presence of inhibitor (FIG. 2A, 2B)",[1]; delphinidin 50 μM plus BTP-2 10 μM,reduced
same,"effect on calcium entry and release, result in words","[1]; delphinidin 50 μM, BTP-2 10 μM","inhibited the entry, but not the release"
same,Average IL-2 production,"[2]; Table 7, 1 μM BTP-2, alone or with 50 μM delphinidin",0 pg/mL
same,Average IL-2 production,"[2]; Table 7, 5 μM BTP-2, alone or with 50 μM delphinidin",0 pg/mL
same,Average IL-2 production,"[2]; Table 7, 10 μM BTP-2, alone or with 50 μM delphinidin",0 pg/mL
same,Average INF-γ production,[3]; [11],240 pg/mL
same,Percentage vs. control (INF-γ),[3]; [11],64.9%
same,Average INF-γ production,[3]; [12],390 pg/mL
same,Percentage vs. control (INF-γ),[3]; [12],105.4%
same,Average INF-γ production,[3]; [13],140 pg/mL
same,Percentage vs. control (INF-γ),[3]; [13],37.8%
"O=C(O)Cc1ccccc1Nc1c(Cl)cccc1Cl [Diclofenac, diclofenac]",Average ABC0-6 (area under the curve of the diameter of the treated legs),[4],12.5** mm*hr
same,Decrease percentage compared to control (ABC0-6),[4],37.5%
"CCCCC/C=C/C=C1/C(=O)C=C[C@@H]1C/C=C\CCCC(=O)O [PGj2, 15-deoxi-d 12,14-prostaglandin J2]",Average percentage activity of control [PPAR-γ-Luc/TK-RL] ± SD,[5],256.8 ± 126.9%
"COc1ccc2c(c1)CC[C@@H]1[C@@H]2CC[C@]2(C)[C@@H](NCCCCCCN3C(=O)C=CC3=O)CC[C@@H]12 [U73122, reference compound]",delphinidin induced calcium flux after pretreatment (FIG. 3),[6]; 50 or 100 uM U73122 for 10 minutes prior to 50 uM delphinidin,dose-dependent reduction
C=C1CC[C@@H]2[C@](C)(CO)[C@H](O)CC[C@@]2(C)[C@@H]1C/C=C1/C(=O)OC[C@H]1O [andrographolide],Average IL-2 production,[7]; [14],0.0140 Abs 450 nm
same,Percentage compared to the control (IL-2),[7]; [14],84.8%
same,Average IL-2 production,[2]; [15],85 pg/mL
same,Percentage compared to the control (IL-2),[2]; [15],212.5%
same,IL-2 levels higher (Table 10),[2]; [16],112%
"Oc1cc(O)c2cc(O)c(-c3ccc(O)c(O)c3)[o+]c2c1 [cyanidin, Cyanidin]",IL-2 lower than control cells,"[7]; 50 μM, 48 hrs",10%
same,Average IL-2 production,[7]; [17],45 pg/mL
same,Percentage vs. control (IL-2),[7]; [17],90%
same,"INF-γ levels relative to control cells, result in words",[8]; 50 μM,about the same levels
same,Average INF-γ production,[8],8 pg/mL
same,Percentage vs. control (INF-γ),[8],100%
"Oc1cc(O)c2cc(O)c(-c3cc(O)c(O)c(O)c3)[o+]c2c1 [delphinidin, Delphinidin]",Average area under the curve of ratio 340/380 during 300 seconds,[9]; 10 μM delphinidin,100
same,Percentage compared to control,[9]; 10 μM delphinidin,166.7%
same,area under the curve higher than untreated control cells,[9]; 10 μM delphinidin,66.7%
same,Average area under the curve of ratio 340/380 during 300 seconds,[9]; 50 μM delphinidin,225
same,Percentage compared to control,[9]; 50 μM delphinidin,375%
same,area under the curve higher than untreated control cells,[9]; 50 μM delphinidin,275%
same,Average area under the curve of ratio 340/380 during 300 seconds,[9]; 100 μM delphinidin,250
same,Percentage compared to control,[9]; 100 μM delphinidin,416.7%
same,area under the curve higher than untreated control cells,[9]; 100 μM delphinidin,316.7%
same,"Ca2+ fluxes, result in words","[9]; 10, 50, 100 μM delphinidin",induced Ca^2+ fluxes in Jurkat T cells in a dose-dependent manner
same,"calcium release (FIG. 1), result in words","[6]; 50 uM delphinidin, calcium free medium",induced reversible calcium release
same,Average AUC of ratio 340/380 during 200 seconds (calcium release),[6]; [18],51
same,Percentage compared to the control (calcium release),[6]; [18],1700%
same,AUC higher than untreated control cells (calcium release),"[6]; delphinidin 50 μM, BTP-2 10 uM",1700%
same,Average AUC of ratio 340/380 150 sec. after calcium treatments (calcium entry),[1]; [19],70
same,Percentage compared to control (calcium entry),[1]; [19],184.2%
same,IL-2 levels higher than untreated control cells,"[7]; 50 μM, 48 hrs",240%
same,Average IL-2 production,[7]; [17],170 pg/mL
same,Percentage vs. control (IL-2),[7]; [17],340%
same,Average IL-2 production,[7]; [14],0.023 Abs 450 nm
same,Percentage compared to the control (IL-2),[7]; [14],139.4%
same,IL-2 levels higher (Table 11),[7]; [16],39.4%
same,INF-γ levels higher than untreated control cells,[8]; 50 μM,250%
same,Average INF-γ production,[8],28 pg/mL
same,Percentage vs. control (INF-γ),[8],350%
same,Average IL-2 production,"[2]; Table 7, 50 μM delphinidin alone",370 pg/mL
same,Average IL-2 production,[2]; [15],87 pg/mL
same,Percentage compared to the control (IL-2),[2]; [15],217.5%
same,IL-2 levels higher (Table 10),[2]; [16],117%
same,INF-γ levels higher than untreated control cells,[3]; 50 μM delphinidin,950%
same,Average INF-γ production,[3]; 50 μM delphinidin alone,3900 pg/mL
same,Percentage vs. control (INF-γ),[3]; 50 μM delphinidin alone,1054.1%
same,Average IL-2 production,[10],240 pg/mL
tumor necrosis factor alpha [TNFα],Average percentage activity of control [PPAR-γ-Luc/TK-RL] ± SD,[5],283.4 ± 47.23%
